Experimental data: paper PMC4291487, “Stress-induced ceramide generation and apoptosis via the phosphorylation and activation of nSMase1 by JNK signaling” (Cell Death and Differentiation, 2014)
Residue numbers refer to the chain shown, from its start.

Columns and labels:
Assay type in all cases: biochemical
[1] = biological target: T1, nSMase1 (wild-type), zebrafish (Danio rerio, UniProt F1QUD7, S270A); assay: C6-NBD-ceramide release assay; conditions: 37 °C; basal enzyme, not JNK-treated
T1 construct: gene smpd2a; zebrafish cDNA
T1 sequence (F1QUD7 1-421 S270A): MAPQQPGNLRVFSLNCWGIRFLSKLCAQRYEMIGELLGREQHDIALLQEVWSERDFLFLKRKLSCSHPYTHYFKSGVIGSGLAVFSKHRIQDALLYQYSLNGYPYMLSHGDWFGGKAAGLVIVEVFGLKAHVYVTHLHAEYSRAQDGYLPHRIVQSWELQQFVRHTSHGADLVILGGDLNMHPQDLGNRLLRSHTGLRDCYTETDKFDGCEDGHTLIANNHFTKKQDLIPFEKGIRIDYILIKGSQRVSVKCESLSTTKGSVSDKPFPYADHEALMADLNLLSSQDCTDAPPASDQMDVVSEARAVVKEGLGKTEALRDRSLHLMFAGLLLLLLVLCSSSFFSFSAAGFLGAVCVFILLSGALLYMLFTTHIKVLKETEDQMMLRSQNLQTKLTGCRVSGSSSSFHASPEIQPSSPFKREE

[2] = biological target: T2, nSMase1 (wild-type), zebrafish (Danio rerio, UniProt F1QUD7); assay: C6-NBD-ceramide release assay; conditions: 37 °C; basal enzyme, not JNK-treated
T2 construct: gene smpd2a; zebrafish cDNA
T2 sequence (F1QUD7 1-421): T1 sequence (F1QUD7 1-421 S270A) with A270S

mouse JNK1 = biological target: T3, mouse JNK1 (Mus musculus, UniProt Q91Y86); conditions: 10 μM SP600125; 0.25 mM ATP, 10 mM MgCl2, pH 7.4, 30 °C, 30 min
T3 construct: gene Mapk8; commercial recombinant protein (Cell Signaling Technology)
T3 sequence (Q91Y86 whole entry): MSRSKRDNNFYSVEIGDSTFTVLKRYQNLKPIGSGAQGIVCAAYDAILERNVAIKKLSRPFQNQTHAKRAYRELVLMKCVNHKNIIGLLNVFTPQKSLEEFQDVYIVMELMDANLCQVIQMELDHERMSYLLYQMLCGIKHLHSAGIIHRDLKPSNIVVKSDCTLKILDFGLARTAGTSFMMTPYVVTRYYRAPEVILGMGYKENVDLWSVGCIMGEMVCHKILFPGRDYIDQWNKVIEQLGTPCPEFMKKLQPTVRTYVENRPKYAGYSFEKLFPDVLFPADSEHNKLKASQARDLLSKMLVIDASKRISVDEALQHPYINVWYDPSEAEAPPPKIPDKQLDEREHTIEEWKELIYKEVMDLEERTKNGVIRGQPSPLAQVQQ

Row | SMILES | C6-NBD-ceramide release assay [1] | C6-NBD-ceramide release assay [2] | phosphorylation inhibition at 10 μM (mouse JNK1)
1 | CCCCCCCCCCCCC/C=C/[C@@H](O)[C@H](COP(=O)([O-])OCC[N+](C)(C)C)NC(=O)CCCCCNc1ccc([N+](=O)[O-])c2nonc12 [C6-NBD-sphingomyelin] | nSMase activities of the recombinant proteins were determined using C6-NBD-sphingomyelin | nSMase activities of the recombinant proteins were determined using C6-NBD-sphingomyelin | 
2 | O=C1c2ccccc2-c2n[nH]c3cccc1c23 [SP600125, Anthra[1,9-cd]pyrazol-6(2H)-one] |  |  | wild-type pulsed with SP600125 were not phosphorylated
